US9932376B2, “Analogues of temporin-SHa and uses thereof” (UNIVERSITE PIERRE ET MARIE CURIE (PARIS 6), priority 2013, dated 2018)
pIC50: −log10 of the molar value. “Also recorded” adds a separate entry of the source. Ends that are not written are not given here.

Key:
rat erythrocytes = assay: Hemolytic test; assay type: cell-based; details: for hemolytic activity (in words): rat erythrocytes, result in words
Experimental: (§1) The hemolytic activity of the antimicrobial peptides was assessed using rat erythrocytes. Red blood cell hemolysis is manifested by the release into the reaction medium of hemoglobin, the concentration of which is determined spectrophotometrically at 450 nm.
(§2) Red blood cells were separated from plasma and white blood cells by centrifugation of blood (900×g, 10 min). The pellet containing red blood cells was washed three times with PBS buffer, pH 7.4. After counting on a Malassez cell, a stock solution of 4×10^8 red blood cells/mL was prepared in the same buffer. A series of concentrations of the peptides to be tested was prepared (2 to 400 μM).
(§3) The test was carried out as follows: 50 μL of the different peptide concentrations were added to 50 μL of the red blood cell suspension. After 1 hr of incubation at 37° C. followed by centrifugation (12,000×g, 15 sec), absorbance of the supernatant was measured at 450 nm. The negative control for this test (0% hemolysis) contained […] in place of the peptide solution. The positive control (100% hemolysis) contained 50 μL of 0.1% Triton X-100 in place of the peptide solution.
(§4) The LC50 value obtained is the mean of three experiments carried out in triplicate and corresponds to the peptide concentration inducing hemolysis of 50% of the cells.

[1] = test system: Leishmania infantum promastigotes (strain MHOM/MA/67/ITMAP-263); assay: Tests of anti-leishmanial activity on promastigotes expressing the luciferase; assay type: cell-based; details: result in words
Experimental: Leishmanicidal activity of peptides was evaluated on the promastigote form of Leishmania infantum (strain MHOM/MA/67/ITMAP-263), responsible for visceral leishmaniosis.
Promastigotes were maintained at 26° C. by one or two weekly passages, depending on the number of parasites in the inoculum, in SDM 79 medium supplemented with 10 to 20% decomplemented fetal calf serum and […] porcine hemin and in the presence of 100 U/mL penicillin and 100 μg/mL streptomycin (Brun et al., 1979). Starting from an inoculum of 10^5 cells/mL in logarithmic growth phase, the promastigotes reached a cell density of 1 to 2×10^8 parasites/mL in stationary phase after 5 days of culture in 25 cm^2 culture flasks. Cell densities were determined by flow cytometry in the presence of propidium iodide on a FAC Scan cytometer (Excalibur, Becton Dickinson, Ivry, France).
The tests of anti-leishmanial activity were carried out with a parasite line expressing the luciferase. […]
After 72 hrs of incubation at 26° C., 50 μL of Steady-Glo lysis buffer (Promega) were added to each well. […] Emitted luminescence was measured with a luminescence plate reader (Victor, PerkinElmer). […] The percentage growth was calculated according to the following formula: % growth=[(L mean−bgd)peptide×100]/(L mean−bgd)negative control
where L mean: mean luminescence and bgd: background corresponding to the luminescence emitted by the culture medium. […]

[2] = test system: Gram-positive and Gram-negative bacterial strains; assay type: cell-based
From the text: The following strains were used for the antibacterial activity tests: Escherichia coli (ATCC 25922 and ML-35p), Staphylococcus aureus (ATCC 25923 and ST1065), Enterococcus faecalis (ATCC 29212), Pseudomonas aeruginosa (ATCC 27853), Streptococcus pyogenes (ATCC 19615), Listeria ivanovii, Salmonella enterica (serotype Enteritidis), Acinetobacter baumannii (ATCC 19606) and Klebsiella pneumoniae (ATCC 13883). Two antibiotic-resistant strains were also used (S. aureus ATCC 43300 and ATCC BAA-44).
For each strain, a standard inoculum of approximately 10^6 bacteria/mL (exponential growth phase) was prepared. To this end, a colony isolated on LB agar previously inoculated with one of the strains was cultured in 4 mL of LB broth medium, except for S. pyogenes and L. ivanovii, which were grown in BHI (Brain Heart Infusion) from a colony isolated on BHI agar. Liquid cultures were then incubated for 2 to 3 hrs at 37° C. with shaking for the bacteria to reach exponential growth phase. […]
The minimum inhibitory concentration (MIC) of each peptide was determined by a test of growth inhibition in broth medium. […] Bacterial growth was determined by measuring OD at 630 nm (turbidity) on a plate reader. […]

yeasts = assay: Tests of antifungal activity (growth inhibition in YPD broth medium, MIC); assay type: cell-based
Experimental: Three yeast strains were used: Saccharomyces cerevisiae, Candida albicans (ATCC 90028), Candida parapsilosis (ATCC 22019). These strains were first grown on YPD agar for a minimum of 48 hrs. Yeast suspensions were then prepared, exactly as for bacteria, and adjusted to 10^6 cfu/mL in YPD broth medium.
The antifungal activity test corresponds to the growth inhibition test in broth medium used for the bacteria (see above) in which MH medium was replaced by YPD medium. Fungal strains were incubated at 30° C.

Hemolytic test = assay type: cell-based, rat; details: rat erythrocytes (washed red blood cells), pH 7.4, rat erythrocytes, 1 hr at 37° C.; for CC50 at 1 hr: read-out: LC50 (hemolytic activity), unit inferred
Experimental: as §1, §2, §3, §4

[3] = test system: THP-1 monocyte-derived macrophages; assay: Cytotoxicity test on THP-1 human monocytes-derived macrophages; assay type: cell-based; details: result in words
Experimental: The viability of macrophages was ascertained using a trypan blue-based microassay. THP-1 cells from a culture suspension in mid-log phase of growth were plated at a density of 5×10^5 cells/mL in 96-well plates (100 μL/well, i.e., 5×10^4 cells/well) and differentiated as described above. After incubation for 72 hrs at 37° C. with 5% CO2, in the presence of peptide (60 μM to 7.5 μM, final concentrations), adherent macrophages were washed once with prewarmed RPMI 1640 medium and stained for 5 min, with 100 μL of trypan blue 2-fold diluted in RPMI 1640 medium. Wells were then washed twice with 100 μL of RPMI 1640 medium. Living white cells were microscopically counted in three focuses per well using a reticulated ocular.
The viability index (VI) was calculated for each peptide concentration using the following formula: VI=[N meanpeptide×100]/N meannegative control.
where N mean is the mean number of viable parasites. The negative control (100% growth) contained 20 μL of RPMI medium in place of the peptide solution.
The LC50 value, which corresponds to the peptide concentration inducing lysis of 50% of the cells, was determined from the viability indexes. Tests were carried out in sextuplicate for each peptide concentration and at least two independent experiments were performed to determine the LC50 value.

[4] = test system: Leishmania infantum promastigote; details: read-out: IC50 against the promastigote form; cited from earlier work
[5] = test system: Leishmania infantum axenic amastigote; details: read-out: IC50 against the axenic amastigote form; cited from earlier work

Row | Substance | hemolytic activity (in words) (rat erythrocytes) | CC50 at 1 hr (Hemolytic test) [µM] | further results
1 | FLKGIVGMLGKLW-NH2 [[K^3,W^13]temporin-SHa, F-L-K-G-I-V-G-M-L-G-K-L-W] | lower hemolytic activity; also recorded: lesser haemolytic | – | –
2 | F-L-K-G-I-K-G-M-L-G-K-L-L (FLKGIKGMLGKLL-NH2) [[K^3, K^6, L^13]temporin-SHa] | – | – | anti-leishmanial activity on L. infantum promastigotes (in words) [1]: approaches the cytotoxicity level of monocytes
3 | FLKGIVGMLGKLF-NH2 [[K^3]temporin-SHa] | – | – | MIC ([2]; Gram-positive (including antibiotic-resistant S. aureus strains) and Gram-negative bacterial strains of clinical interest): 3 to 6 µM; antimicrobial activity (in words) ([2]; bacteria and yeasts tested, result in words): more potent; MIC (yeasts): 3 to 6 µM
4 | FLKGIKGMLGKLF-NH2 [[K^3,K^6]temporin-SHa, F-L-K-G-I-K-G-M-L-G-K-L-F] | no hemolytic activity | > 500 | –
5 | KGIVGMLGKLF-NH2 [[K^3]temporin-SHa(3-13)] | devoid of hemolytic activity | – | HC50 at 1 hr (Hemolytic test; read-out: LC50 (hemolytic activity)): 618 µM
6 | FLKGIVGKLGKLL-NH2 [[K^3, K^8,L^13]temporin-SHa, F-L-K-G-I-V-G-K-L-G-K-L-L] | no hemolytic activity | > 500 | –
7 | FLKGIVGKLGKLF-NH2 [[K^3,K^8]temporin-SHa, F-L-K-G-I-V-G-K-L-G-K-L-F] | no hemolytic activity | > 500 | –
8 | FLKGIVGMLGKLL-NH2 [[K^3,L^13]temporin-SHa, F-L-K-G-I-V-G-M-L-G-K-L-L] | lower hemolytic activity; also recorded: lesser haemolytic | – | cytotoxicity against the host cell (macrophage) (in words) [3]: reduced cytotoxicity; fold lower hemolytic activity than [K^3]temporin-SHa (rat erythrocytes; relative to [K^3]temporin-SHa): 2 fold
9 | FLSGIVGMLGKLF [temporin-SHa, F-L-S-G-I-V-G-M-L-G-K-L-F] | – | – | pIC50 [4]: 4.74; pIC50 [5]: 4.64
